For test [1], the target named is T1, CYP3A4 (Homo sapiens, UniProt P08684). The experiment in a line: Determination of IC50 against CYP3A4 by measurement of inhibition of midazolam metabolism (human liver microsomes, 1-hydroxymidazolam by LC-MS/MS). The conditions noted are these: 2 μM midazolam, 0.1 mg/mL human liver microsomes. Type of test: biochemical. Details: 0.1 mg/mL human liver microsomes. As for the experimental part:
3. Determination of IC50 Against CYP3A4 by Measurement of Inhibition of Midazolam Metabolism
This assay was performed using a standard 96 well plate design. […] The incubation substrate mix contains 2 μM midazolam, 0.1 mg/mL human liver microsomes, 1 mM NADPH, and potassium phosphate buffer (100 mM, pH 7.4). Quantitation of metabolite peak area ratio against internal standard is determined by LC-MS/MS analysis. The production of 1-hydroxymidazolam from midazolam metabolism is determined after incubation for eight minutes by comparison to a standard curve generated for the metabolite.
Samples were analyzed in the MRM mode using a Sciex API 3000 mass spectrometer (Applied Biosystems, Foster City, Calif.) with a Paradigm MS4 binary pump (Michrom BioResources Inc., Auburn, Calif.) and a LEAP CTC PAL autosampler (LEAP Technologies, Carrboro, N.C.). A Phenomenex Synergi, 4μ, Polar-RP, 10×2.0 mm column (Phenomenex, Torrance, Calif.) was used for separation with a mobile phase composition of: 0.1% formic acid in water (A) and: 0.1% formic acid in methanol (B). The following gradient was used: […]
The sample injection volume was 10 μL and flow was split post-column with 0.4 mL/min going to the mass spectrometer. Analysis was performed using the following API 3000 mass spectrometer settings: […]
Background: Liver microsomes are a subcellular fraction often used to study metabolism.

For test [2], the target named is T1, CYP3A4. The experiment in a line: Determination of compound Kiapp against recombinant CYP3A4 enzyme (BFC fluorescent substrate). Type of test: biochemical. As for the experimental part: 1. Determination of compound Kiapp
A determination of the Kiapp of the compounds of the invention against recombinant CYP3A4 enzyme was performed as follows. The assay was performed in a 100 mM sodium phosphate buffer pH 7.0, 5 mM TCEP and containing 2% dimethylformamide (final concentration) upon addition of substrate and inhibitor. A typical reaction for the determination of Kiapp values was carried at room temperature in a solid black Costar u-bottom 96-well polypropylene plate. In each well, recombinant CYP3A4 enzyme (5.5 nM or 8 nM, final concentration depending on the commercial source of the enzyme) was pre-incubated in the presence of the inhibitor for at least 30 minutes in the assay buffer. When pre-incubation was completed (˜30 min), the reaction was initiated by adding NADPH (200 uM, final concentration), and 7-benzyloxy-4-(trifluoromethyl)-coumarin (BFC) (5 uM, final concentration). The oxidation of the coumarin substrate was recorded by a 96-well plate reader POLARstar (BMG LABTECH, Offenburg, Germany).
The initial reaction velocities were measured during the first 5 min of the reaction when the release of the fluorescent product is linear with time, in the absence and in the presence of various concentrations of inhibitors. For non-partial & partial inhibitors, the Kiapp values were determined by using the equation for tight-binding inhibitor developed by Morrison, J F (Morrison J F. Biochim Biophys Acta. 1969, 185: 269-86) and by Szedlaseck S E et al. (Szedlascek, S. E., Ostafe, V., Serban, M., and Vlad, M.O. Biochem. J. 1988, 254:311-312), respectively.
The fluorescent substrate BFC was purchased from Sigma (St Louis, Mo.). Two commercial sources of recombinant enzymes were used in this study: recombinant CYP3A4−b5 enzyme (Baculosomes®) was purchased from Invitrogen (Carlsbad, Calif.) and the recombinant CYP3A4+b5 enzyme (Supersomes®) was purchased from BD Biosciences (Woburn, Mass.).

[3] abbreviates: Baculo. enzyme preparation, read-out: Kiapp (BFC, Baculo.).
Setting [4] is: Super. enzyme preparation, read-out: Kiapp (BFC, Super.).

pIC50, pKi: −log10 of the molar value. Where two headings read alike, the source gives them in different places.

T1 sequence (P08684 whole entry): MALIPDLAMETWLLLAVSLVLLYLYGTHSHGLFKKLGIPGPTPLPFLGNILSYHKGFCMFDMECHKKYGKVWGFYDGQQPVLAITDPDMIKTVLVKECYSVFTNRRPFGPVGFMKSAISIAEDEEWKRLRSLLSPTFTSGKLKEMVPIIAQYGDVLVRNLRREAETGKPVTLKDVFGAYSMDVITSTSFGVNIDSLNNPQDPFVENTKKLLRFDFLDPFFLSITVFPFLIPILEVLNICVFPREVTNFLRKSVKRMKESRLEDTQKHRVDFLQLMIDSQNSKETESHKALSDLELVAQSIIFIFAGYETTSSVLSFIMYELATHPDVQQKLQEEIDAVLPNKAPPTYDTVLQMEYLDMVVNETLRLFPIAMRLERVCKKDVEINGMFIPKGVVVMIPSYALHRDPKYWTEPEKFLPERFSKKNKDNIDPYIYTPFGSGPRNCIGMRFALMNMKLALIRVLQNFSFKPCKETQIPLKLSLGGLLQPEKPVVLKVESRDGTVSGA

Consider `COc1cncc(NS(=O)(=O)c2ccccc2C(=O)NCCc2ccc(F)c(F)c2)c1` [Example 137, N-[2-(3,4-difluorophenyl)ethyl]-2-{[(5-methoxypyridin-3-yl)amino]sulfonyl}benzamide], for which the negative logarithm of the IC50 (pIC50) (as a rule, the negative decadic logarithm of the IC50, by convention in mol/L) on CYP3A4 [1] was 7.74. Moreover, the figures for the pKi at CYP3A4 [2] (setting [3]) and on CYP3A4 [2] (setting [4]) were 6.94 and 8.14, respectively.
The like results for `Cc1cncc(NS(=O)(=O)c2ccccc2C(=O)NC(C(C)C)C(C)C)c1` [Example 92, N-(1-isopropyl-2-methylpropyl)-2-{[(5-methylpyridin-3-yl)amino]sulfonyl}benzamide] were, in that order, 7.66, 7.34 and 7.76.
With `COc1ccncc1NS(=O)(=O)c1ccccc1C(=O)N[C@H](C)C(C)C` [Example 112, N-[(1R)-12-dimethylpropyl]-2-{[(4-methoxypyridin-3-yl)amino]sulfonyl}benzamide], the pIC50 at CYP3A4 [1] was 7.34. Also, the pKi at CYP3A4 [2] (setting [3]) was 6.36; on CYP3A4 [2] (setting [4]), 6.92.
Turning to `COc1cncc(NS(=O)(=O)c2ccccc2C(=O)NC(C)Cc2ccc(F)c(F)c2)c1` (stereo not drawn) [Example 135], the negative-log IC50 (pIC50) on CYP3A4 [1] is 7.74. Moreover, the pKi is 7.61 at CYP3A4 [2] (setting [3]) and 8.31 at CYP3A4 [2] (setting [4]).
The corresponding values for `CN(Cc1ccc(C(F)(F)F)cc1)C(=O)c1ccccc1S(=O)(=O)Nc1cccnc1` [Example 140, N-methyl-2-[(pyridin-3-ylamino)sulfonyl]-N-[4-(trifluoromethyl)benzyl]benzamide] are 7.25, 6.80 and 7.76.
The like results for `CC[C@@H](C)NC(=O)c1ccccc1S(=O)(=O)Nc1cncc(OC)c1` [Example 101, 2-{[(5-methoxypyridin-3-yl)amino]sulfonyl}-N-[(1R) -1-methylpropyl]benzamide] were, in that order, 7.59, 6.61 and 7.26.
With `COc1cncc(NS(=O)(=O)c2ccccc2C(=O)NCCc2ccc(C(F)(F)F)c(F)c2)c1` [Example 134, N-{2-[3-fluoro-(trifluoromethyl)phenyl]ethyl}-2-{[(5-methoxypyridin-3-yl)amino]sulfonyl}benzamide], the pIC50 at CYP3A4 [1] was 7.85. Moreover, the pKi on CYP3A4 [2] (setting [3]) is 7.16; at CYP3A4 [2] (setting [4]) it was 8.06.
The like results for `CCOc1ccncc1NS(=O)(=O)c1ccccc1C(=O)N[C@@H](C)C(C)C` [Example 107, N-[(1S)-12-dimethylpropyl]-2-{[(4-ethoxypyridin-3-yl)amino]sulfonyl}benzamide] were, in that order, 7.24, 6.67 and 7.36.
The like results for `COCCN(C(=O)c1ccccc1S(=O)(=O)Nc1cncc(C)c1)C(C)C` [Example 130, N-isopropyl-N-(2-methoxyethyl)-2-{[(5-methylpyridin-3-yl)amino]sulfonyl}benzamide] were, in that order, 7.66, 6.87 and 7.20.
The like results for `Cc1cncc(NS(=O)(=O)c2ccccc2C(=O)NCc2ccc3c(c2)CCO3)c1` [Example 94, N-(2,3-dihydro-1-benzofuran-5-ylmethyl)-2-{[(5-methylpyridin-3-yl)amino]sulfonyl}benzamide] were, in that order, 7.80, 6.74 and 7.59.
With `COc1cncc(NS(=O)(=O)c2ccccc2C(=O)NCCc2ccc(C)c(F)c2F)c1` [Example 136, N-[2-(2,3-difluoro-4-methylphenyl)ethyl]-2-{[(5-methoxypyridin-3-yl)amino]sulfonyl}benzamide], the negative-log IC50 (pIC50) at CYP3A4 [1] was 8.00. The pKi at CYP3A4 [2] (setting [3]) is 7.22; on CYP3A4 [2] (setting [4]), 8.32.
The corresponding values for `COc1cncc(NS(=O)(=O)c2ccccc2C(=O)N(CC(C)O)C(C)C)c1` (stereo not drawn) [Example 99, N-(2-hydroxypropyl)-N-isopropyl-2-{[(5-methoxypyridin-3-yl)amino]sulfonyl}benzamide] are 7.05, 6.39 and 6.65.
As for `COc1cncc(NS(=O)(=O)c2ccccc2C(=O)NCc2ccc(C)c(Cl)c2)c1` [Example 138, N-(3-chloro-4-methylbenzyl)-2-{[(5-methoxypyridin-3-yl)amino]sulfonyl}benzamide], the negative-log IC50 (pIC50) on CYP3A4 [1] is 7.80. For the same compound, the pKi at CYP3A4 [2] (setting [3]) was 7.71; at CYP3A4 [2] (setting [4]) it was 8.57.
The like results for `CCC(C)NC(=O)c1ccccc1S(=O)(=O)Nc1cnccc1OC` (stereo not drawn) [Example 120, N-(sec-butyl)-2-{[(4-methoxypyridin-3-yl)amino]sulfonyl}benzamide] were, in that order, 7.07, 6.31 and 6.85.
The corresponding values for `COCCN(C(=O)c1ccccc1S(=O)(=O)Nc1cccnc1)C(C)C` [Example 128, N-isopropyl-N-(2-methoxyethyl)-2-[(pyridin-3-ylamino)sulfonyl]benzamide] are 7.17, 6.35 and 7.26.
Take `CCOc1ccncc1NS(=O)(=O)c1ccccc1C(=O)NC(C)(C)CC` [Example 105, N-(1,1-dimethylpropyl)-2-{[(4-ethoxypyridin-3-yl)amino]sulfonyl}benzamide]: the negative-log IC50 (pIC50) on CYP3A4 [1] is 7.68. Further, the pKi on CYP3A4 [2] (setting [3]) is 7.08; on CYP3A4 [2] (setting [4]), 7.54.
The corresponding values for `CCOc1ccncc1NS(=O)(=O)c1ccccc1C(=O)NC(C)CC` (stereo not drawn) [Example 119, N-(sec-butyl)-2-{[(4-ethoxypyridin-3-yl)amino]sulfonyl}benzamide] are 7.35, 6.60 and 7.15.
The like results for `CCC(C)NC(=O)c1ccccc1S(=O)(=O)Nc1cncc(N)c1` (stereo not drawn) [Example 113, 2-{[(5-aminopyridin-3-yl)amino]sulfonyl}-N-(sec-butyl)benzamide] were, in that order, 7.05, 6.16 and 7.01.
The like results for `CCC(C)NC(=O)c1ccccc1S(=O)(=O)Nc1cncc(C)c1` (stereo not drawn) [Example 121, N-(sec-butyl)-2-{[(5-methylpyridin-3-yl)amino]sulfonyl}benzamide] were, in that order, 7.51, 6.31 and 7.15.
In the case of `CC[C@H](C)CNC(=O)c1ccccc1S(=O)(=O)Nc1cncc(OC)c1` [Example 96, 2-{[(5-methoxypyridin-3-yl)amino]sulfonyl}-N-[(2S)-2-methylbutyl]benzamide], the negative logarithm of the IC50 (pIC50) at CYP3A4 [1] was 8.05. Also, the pKi at CYP3A4 [2] (setting [3]) was 6.91; on CYP3A4 [2] (setting [4]), 7.65.
The like results for `COCCN(C(=O)c1ccccc1S(=O)(=O)Nc1cnccc1OC)C(C)C` [Example 127, N-isopropyl-N-(2-methoxyethyl)-2-{[(4-methoxypyridin-3-yl)amino]sulfonyl}benzamide] were, in that order, 6.97, 6.16 and 6.55.
The corresponding values for `Cc1ccncc1NS(=O)(=O)c1ccccc1C(=O)N(C)Cc1ccccc1` [Example 139, N-benzyl-N-methyl-2-{[(4-methylpyridin-3-yl)amino]sulfonyl}benzamide] are 7.32, 6.41 and 7.29.
Turning to `CCC(C)CNC(=O)c1ccccc1S(=O)(=O)Nc1cncc(C)c1` (stereo not drawn) [Example 118, N-(2-methylbutyl)-2-{[(5-methylpyridin-3-yl)amino]sulfonyl}benzamide], the pIC50 at CYP3A4 [1] was 7.74. The pKi on CYP3A4 [2] (setting [3]) is 6.99; at CYP3A4 [2] (setting [4]) it was 7.87.
The corresponding values for `Cc1cncc(NS(=O)(=O)c2ccccc2C(=O)N(C)Cc2ccc(F)cc2)c1` [Example 146, N-(4-fluorobenzyl)-N-methyl-2-{[(5-methylpyridin-3-yl)amino]sulfonyl}benzamide] are 7.96, 7.26 and 8.07.
